Results on twelve compounds are retold here after patent US20250084063A1 (Incyte Corporation, priority 2023, published 2025).

Each structure is given as a SMILES string.

What is called IC50 is the concentration that inhibits the measured activity by half.

Test [1] concerns the target T1, MRGPRX2 (Homo sapiens, UniProt Q96LB1).
T1 sequence (Q96LB1 1-330): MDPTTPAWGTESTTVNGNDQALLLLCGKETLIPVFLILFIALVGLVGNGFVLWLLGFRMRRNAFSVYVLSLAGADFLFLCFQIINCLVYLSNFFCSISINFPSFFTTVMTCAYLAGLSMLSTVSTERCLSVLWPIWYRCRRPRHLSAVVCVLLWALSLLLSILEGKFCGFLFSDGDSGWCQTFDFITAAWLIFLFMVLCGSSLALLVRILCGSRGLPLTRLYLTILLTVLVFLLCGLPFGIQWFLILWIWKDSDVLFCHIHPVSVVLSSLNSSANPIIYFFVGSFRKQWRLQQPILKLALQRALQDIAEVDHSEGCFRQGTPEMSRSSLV
Nature of the test: MRGPRX2 FLIPR calcium mobilization assay. The test is classed as cell-based. Also noted: host or cells: CHO-K1. Particulars: CHO-K1 cells stably expressing human MRGPRX2; Ca2+ release, agonist Cortistatin-14 at EC80. The protocol:
Example A. MRGPRX2 FLIPR Calcium Mobilization Assay
Chinese hamster ovary (CHO-K1) cells stably expressing human MRGPRX2 were purchased from Genescript (Piscataway, NJ). The cells were maintained in culture medium (Ham's F-12K) containing 10% (v/v) FBS, 200 μg/mL Zeocin, 100 units/mL penicillin G and 100 μg/mL streptomycin (Life Technologies, Carlsbad, CA). For the assay, the cells were harvested and resuspended with culture medium without Zeocin before plating at 8000 cells per well in 20 μL in 384-well black clear bottom cell culture plates (VWR, Radnor, PA). After 24 h culture at 37° C. and 5% CO2, the cells were loaded with 20 μL/well of calcium dye (FLIPR Calcium 6 Assay Kit, Molecular Devices, San Jose, CA) diluted in loading buffer (1×Hank's Balanced Salt Solution (HBSS), 5 mM probenecid, 20 mM 4-(2-hydroxyethyl)-1-piperazineethanesulfonic acid (HEPES), pH 7.4, VWR, Radnor, PA) followed with 45 min incubation at 37° C. and 40 min at room temperature in the dark. Cells were then treated with the addition of 10 uL/well test compounds with a range of increasing concentrations diluted in the assay buffer (1×HBSS, 20 mM HEPES, pH 7.4, VWR, Radnor, PA) with FLIPR Penta (Molecular Devices. San Jose, CA) and incubated for 30 min. at room temperature. Ca^2+ release was measured with FLIPR Penta with 10 seconds basal fluorescence measurement, then 12.5 μL of 5× agonist Cortistatin-14 (Tocris, Minneapolis, MN) at final concentration corresponding to the EC80 were added followed with continued fluorescence signal monitoring for an additional 110 seconds. The base line adjusted (median of first 10s base line) max value of the Relative Fluorescence Unit (RFU) was plotted against compound concentrations. Wells with no compound were served as the positive controls, and wells with high concentration of reference antagonist were used as negative controls. IC50 curves were globally fitted with 3- or 4-parameter Hill equation in a Genedata Screener (Genedata Basel, Switzerland).
(A change in cytosolic calcium serves as a functional read-out for many receptors and channels.)

Test [2] has as its target T1, MRGPRX2. Nature of the test: MRGPRX2 IP1 HTRF assay. Also noted: host or cells: CHO-K1. The following applies: CHO-K1 cells stably expressing human MRGPRX2; IP1 accumulation, agonist Cortistatin 14 1 μM. It is filed as cell-based. The text has this: Example B: MRGPRX2 IP1 HTRF Assay
This assay measures compound inhibition of myo-Inositol 1 phosphate (IP1) accumulation in CHO-K1 cells. Chinese hamster ovary (CHO-K1) cells stably expressing human MRGPRX2 were purchased from GenScript (Piscataway, NJ).
For the HTRF IP1 determination, an IP-One GqKit (Perkin Elmer Cisbio, Waltham, MA), which includes all reagents and buffers in this protocol, was used. The cells were maintained in culture medium (Ham's F-12K) containing 10% (v/v) FBS, and 200 μg/mL Zeocin. For the assay, the cells were harvested and resuspended in culture medium with 2% FBS and without Zeocin, then were passed through a 40 μm filter. Cells were added at 20000 cells in a 5 μL/well to a 384-well white small volume cell culture plate (Greiner VWR, Radnor, PA) which contained 50 nL/well of test compound serially diluted at a selected concentration range in DMSO. 5 μL/well of prepared 2× Stimulation Buffer2 was then added to plates and was incubated at 37° C. with 5% CO2 for 1 h. 5 μL/well of agonist Cortistatin 14 (Bio-TechneR&D Systems, Minneapolis, MN) in 1× Stimulation Buffer 2, for a 1 μM final concentration, was then added to plates and incubated at 37° C. with 5% CO2 for 1 h. 6 μL/well of 1:20 diluted Detection Reagent Mix (d2 and Cryptate) was added to the plates and incubated for 1 h in the dark. Plates were read on the PHERAstar microplate reader (BMG Labtech Cary, NC) to determine the HTRF ratio of the acceptor and donor emission signals. The IP1 concentrations were calculated from a standard curve following the IP-One GQ kit instructions. Wells with DMSO only and wells with high concentration of reference antagonist were used as controls for normalization. Compound IC50 curves were globally fitted with 3- or 4-parameter Hill equation in a Genedata Screener (Genedata Basel, Switzerland).
In general terms: In TR-FRET formats the signal depends on donor and acceptor labels being close together.

Regarding `NC(=O)N1CCC(CNc2cc(C(F)(F)F)nc3ccc(Cl)cc23)(c2ccccc2)CC1` [Example 13, 4-(((6-Chloro-2-(trifluoromethyl)quinolin-4-yl)amino)methyl)-4-phenylpiperidine-1-carboxamide], the IC50 in test [1] and in test [2] was 0.0001 to 0.1 µM throughout.
`CNC(=O)N1CC(CNc2cc(C(F)(F)F)nc3ccc(Cl)cc23)(c2ccc(F)cn2)C1` [Example 51, 3-(((6-Chloro-2-(trifluoromethyl)quinolin-4-yl)amino)methyl)-3-(5-fluoropyridin-2-yl)-N-methylazetidine-1-carboxamide]: the concentration for half-maximal inhibition (IC50) in test [1] and in test [2] was 0.0001 to 0.1 µM each time.
Turning to `NC(=O)N1CC(CNc2cc(C(F)(F)F)nc3ccc(Cl)cc23)(c2ccccc2)C1` [Example 40, 3-(((6-Chloro-2-(trifluoromethyl)quinolin-4-yl)amino)methyl)-3-phenylazetidine-1-carboxamide], the IC50 in test [1] and in test [2] was 0.0001 to 0.1 µM in each case.
Take `N#Cc1ccc2nc(C(F)(F)F)cc(NCC3(c4ccc(F)cn4)CN(C(N)=O)C3)c2c1` [Example 58, 3-(((6-Cyano-2-(trifluoromethyl)quinolin-4-yl)amino)methyl)-3-(5-fluoropyridin-2-yl)azetidine-1-carboxamide]: the IC50 in test [1] and in test [2] was 0.1 to 1 µM in each case.
As to `Cc1ccc2c(NCC3(c4ccc(F)cn4)CN(C(N)=O)C3)cc(C(F)(F)F)nc2c1` [Example 61, 3-(5-Fluoropyridin-2-yl)-3-(((7-methyl-2-(trifluoromethyl)quinolin-4-yl)amino)methyl)azetidine-1-carboxamide], the IC50 in test [1] and in test [2] was greater than 1 µM each time.
On to `Cc1cccc2nc(C(F)(F)F)cc(NCC3(c4ccc(F)cn4)CN(C(N)=O)C3)c12` [Example 62, 3-(5-Fluoropyridin-2-yl)-3-(((5-methyl-2-(trifluoromethyl)quinolin-4-yl)amino)methyl)azetidine-1-carboxamide], for which the IC50 in test [1] and in test [2] was greater than 1 µM in each case.
Consider `NS(=O)(=O)N1CC(CNc2cc(C(F)(F)F)nc3ccc(Cl)cc23)(c2ccc(Cl)cc2)C1` [Example 33, 3-(((6-Chloro-2-(trifluoromethyl)quinolin-4-yl)amino)methyl)-3-(4-chlorophenyl)azetidine-1-sulfonamide], for which the IC50 in test [1] and in test [2] was 0.0001 to 0.1 µM throughout.
With `NC(=O)N1CC(CNc2cc(C(F)(F)F)nc3ccc(Cl)cc23)(c2ccnc(Cl)c2)C1` [Example 42, 3-(((6-Chloro-2-(trifluoromethyl)quinolin-4-yl)amino)methyl)-3-(2-chloropyridin-4-yl)azetidine-1-carboxamide], the IC50 in test [1] and in test [2] was 0.0001 to 0.1 µM in each case.
With `N#Cc1ccn(C2(CNc3cc(C(F)(F)F)nc4ccc(Cl)cc34)CN(C(N)=O)C2)n1` [Example 104, 3-(((6-Chloro-2-(trifluoromethyl)quinolin-4-yl)amino)methyl)-3-(3-cyano-1H-pyrazol-1-yl)azetidine-1-carboxamide], the IC50 in test [1] and in test [2] was 0.0001 to 0.1 µM throughout.
`N#Cc1cccc2c(NCC3(c4ccc(F)cn4)CN(C(N)=O)C3)cc(C(F)(F)F)nc12` [Example 64, 3-(((8-Cyano-2-(trifluoromethyl)quinolin-4-yl)amino)methyl)-3-(5-fluoropyridin-2-yl)azetidine-1-carboxamide]: the IC50 in test [1] was greater than 1 µM.
In the case of `Cc1cc(C)n(C2(CNc3cc(C(F)(F)F)nc4ccc(Cl)cc34)CN(C(N)=O)C2)n1` [Example 105, 3-(((6-Chloro-2-(trifluoromethyl)quinolin-4-yl)amino)methyl)-3-(3,5-dimethyl-1H-pyrazol-1-yl)azetidine-1-carboxamide], in test [2], the IC50 was 0.1 to 1 µM.
On to `NC(=O)N1CC(CNc2cc(C(F)(F)F)nc3cc(Cl)ccc23)(c2ccc(F)cn2)C1` [Example 57, 3-(((7-Chloro-2-(trifluoromethyl)quinolin-4-yl)amino)methyl)-3-(5-fluoropyridin-2-yl)azetidine-1-carboxamide], for which the IC50 in test [1] is 0.0001 to 0.1 µM.
